Reference: patent publication US20090123907A1 (priority 2004, published 2009)

How the values were obtained:
[1] = system: red blood cells; experiment: Red blood cell integrity during storage at 4° C.; format: cell-based; set-up: MCV Day 20 / MCV Day 33: unit not given here; settings: for RBC Day 1: whole blood; for MCV Day 20 / MCV Day 33: whole blood stored at 4° C.
Protocol: (§1) In this experiment whole blood (an aliquot of which clotted within 10 minutes without anticoagulant) was modified by adding a number of different anticoagulant compositions. Sodium citrate was used as an anticoagulant at 0.65%, 0.75% and 0.9% by weight. These are all higher citrate levels than the usual 0.4% by weight. Amino acid citrates (lysine or arginine) were used at 0.65%, 0.75% and 0.9% by weight based on the weight of the citric acid. The amino acid counterion was used in sufficient quantity to adjust the pH as explained above.
To judge red cell condition the blood was counted and various other measurements were taken initially and after 20 and 33 days of storage at 4° C. Apparent initial/differences in RBC counts are due to dilution caused by adding extra anticoagulant. Mean cell volume (MCV) is a red cell index that is a useful measure of red cell health. […] It is believed that a citrate level of at least about 1.0% by weight (i.e., more than two times the usual amount) is necessary to ensure against all activation of plasma proteins. […] On the other hand, amino acid citrates, which are very effective anticoagulants, are also effective at preventing red cell damage.

[2] = system: plasma proteins; experiment: Protein resistance to glass beads; settings: Na citrate 0.4%, lysine citrate 2.0%
Text: The above experiment was repeated using glass beads as a denaturing agent. Generally, contact of blood plasma with glass surfaces results in activation or denaturation. […].

[3] = system: platelets; experiment: Platelet preservation in platelet rich plasma with 1% citrate (lysine citrate); format: cell-based; settings: PRP 1% citrate, room temperature
Protocol: (§2) In the experiment anticoagulated blood (0.4% citrate by weight) was centrifuged to produce platelet Rich Plasma (PRP). To test samples of PRP citric acid stock solution containing sufficient lysine to bring the solution pH to 7.0 was added to increase the citrate concentration to 1% by weight. Following this addition the pH of the mixture was 6.7. It will be apparent to one of skill in the art that the precise ratio of basic amino acid to citrate can be altered to adjust the pH of the either the stock solution or the final blood mixture. One sample of original PRP was used as the Normal Control, and one sample of the lysine citrate PRP was used as the Citrate Control. One sample of original PRP was inoculated with cultured Staphylococcus epidermidis to a final concentration of about 10 cfu/ml—this formed the Spiked Normal. […] The samples were incubated at room temperature for five days. Each day the number of platelets in each sample was counted; each sample was also tested for LDH (lactate dehydrogenase) and for the ability to induce a clot. Following the tests an aliquot of each sample was subcultured on nutrient agar and incubated under growth conditions.

[4] = system: plasma proteins; experiment: Protein resistance to 56° C. treatment; settings: Na citrate 0.4%, lysine citrate 2.0%
Text: […]. In many cases heat treatments have been used to reduce or eliminated infectious agents from blood products. A problem with such an approach has been heat induced changes in the antigenicity of certain blood components. […]. A continuation of this experiment was set up to check also long term room temperature stability. It is generally believed that resistance to heat is an indicator of room temperature stability. That is the justification for estimating long term stability of products by using “accelerated” stability tests based on storage at an elevated temperature. In the presented experiment it is important to note that different plasma sample were used for the two different anticoagulants because a single sample was not large enough to provide sufficient volume for all of the tests over the life of the extended experiment.

[5] = system: Staphylococcus epidermidis; experiment: Colony counts of PRP samples subcultured on nutrient agar; format: cell-based; settings: for Colony Counts: PRP 1% citrate spiked with about 10 cfu/ml, room temperature
Protocol: as §2

[6] = system: clot formation; experiment: Clotting times (PT, PTT) of anticoagulated whole blood; format: biochemical
Protocol: as §1

[7] = Post 30 min rocking with glass beads
[8] = Day 1, spiked with Staphylococcus epidermidis about 10 cfu/ml
[9] = Day 2, spiked with Staphylococcus epidermidis about 10 cfu/ml
[10] = Day 3, spiked with Staphylococcus epidermidis about 10 cfu/ml
[11] = Day 4, spiked with Staphylococcus epidermidis about 10 cfu/ml
[12] = Day 5, spiked with Staphylococcus epidermidis about 10 cfu/ml
[13] = Post 56° C. for five minutes, plasma

Structure (SMILES): NCCCC[C@H](N)C(=O)O.O=C(O)CC(O)(CC(=O)O)C(=O)O [Lysine Citrate, lysine citrate]
- RBC Day 1 ([1]; anticoagulant 0.65 wgt %): 5.37 10^6/μl
- MCV Day 20 ([1]; anticoagulant 0.65 wgt %): 93.0
- MCV Day 33 ([1]; anticoagulant 0.65 wgt %): 93.8
- RBC Day 1 ([1]; anticoagulant 0.75 wgt %): 6.78 10^6/μl
- MCV Day 20 ([1]; anticoagulant 0.75 wgt %): 92.7
- MCV Day 33 ([1]; anticoagulant 0.75 wgt %): 92.7
- RBC Day 1 ([1]; anticoagulant 0.90 wgt %): 5.82 10^6/μl
- MCV Day 20 ([1]; anticoagulant 0.90 wgt %): 92.2
- MCV Day 33 ([1]; anticoagulant 0.90 wgt %): 92.9
- Alk. Phos [2, 7]: 24 IU/.L
- LDH [2, 7]: 96 IU/L
- SGOT [2, 7]: 12 IU/L
- SGPT [2, 7]: 24 IU/L
- fIX [2, 7]: 84%
- fV [2, 7]: 67%
- fVIII [2, 7]: 62%
- fibrinogen [2, 7]: 202 mg/dL
- Alk. Phos ([2]; Pre glass beads): 25 IU/.L
- LDH ([2]; Pre glass beads): 99 IU/L
- SGOT ([2]; Pre glass beads): 12 IU/L
- SGPT ([2]; Pre glass beads): 26 IU/L
- fIX ([2]; Pre glass beads): 98%
- fV ([2]; Pre glass beads): 95%
- fVIII ([2]; Pre glass beads): 97%
- fibrinogen ([2]; Pre glass beads): 247 mg/dL
- Clot time [3, 8]: 29 s
- Count (platelets) [3, 8]: 2.99 × 10^5 per μl
- LDH [3, 8]: 131 IU/L
- Clot time ([3]; Day 1, unspiked): 35 s
- Count (platelets) ([3]; Day 1, unspiked): 3.2 × 10^5 per μl
- LDH ([3]; Day 1, unspiked): 133 IU/L
- Clot time [3, 9]: 32 s
- Count (platelets) [3, 9]: 3.0 × 10^5 per μl
- LDH [3, 9]: 130 IU/L
- Clot time ([3]; Day 2, unspiked): 30 s
- Count (platelets) ([3]; Day 2, unspiked): 3.1 × 10^5 per μl
- LDH ([3]; Day 2, unspiked): 133 IU/L
- Clot time [3, 10]: 30 s
- Count (platelets) [3, 10]: 3.0 × 10^5 per μl
- LDH [3, 10]: 133 IU/L
- Clot time ([3]; Day 3, unspiked): 32 s
- Count (platelets) ([3]; Day 3, unspiked): 3.3 × 10^5 per μl
- LDH ([3]; Day 3, unspiked): 134 IU/L
- Clot time [3, 11]: 30 s
- Count (platelets) [3, 11]: 3.2 × 10^5 per μl
- LDH [3, 11]: 131 IU/L
- Clot time ([3]; Day 4, unspiked): 35 s
- Count (platelets) ([3]; Day 4, unspiked): 3.5 × 10^5 per μl
- LDH ([3]; Day 4, unspiked): 133 IU/L
- Clotting time [3, 12]: 32 s
- Count (platelets) [3, 12]: 3.0 × 10^5 per μl
- LDH [3, 12]: 131 IU/L
- Clotting time ([3]; Day 5, unspiked): 33 s
- Count (platelets) ([3]; Day 5, unspiked): 3.1 × 10^5 per μl
- LDH ([3]; Day 5, unspiked): 135 IU/L
- Alk. Phos [4, 13]: 16 IU/.L
- LDH [4, 13]: 91 IU/L
- SGOT [4, 13]: 7 IU/L
- SGPT [4, 13]: 17 IU/L
- fIX [4, 13]: 79%
- fV [4, 13]: 69%
- fVIII [4, 13]: 88%
- fibrinogen [4, 13]: 147 mg/dL
- Alk. Phos ([4]; before heating, fresh plasma): 23 IU/.L
- LDH ([4]; before heating, fresh plasma): 97 IU/L
- SGOT ([4]; before heating, fresh plasma): 10 IU/L
- SGPT ([4]; before heating, fresh plasma): 20 IU/L
- fIX ([4]; before heating, fresh plasma): 99%
- fV ([4]; before heating, fresh plasma): 97%
- fVIII ([4]; before heating, fresh plasma): 102%
- fibrinogen ([4]; before heating, fresh plasma): 198 mg/dL
- Colony Counts ([5]; Day 1): 10
- Colony Counts ([5]; Day 2): 7
- Colony Counts ([5]; Day 3): 5
- Colony Counts ([5]; Day 4): 9
- Colony Counts ([5]; Day 5): 7
- bacteria following plating onto nutrient agar ([5]; unspiked PRP 1% citrate): no bacteria
- PT (4 hrs at RT) ([6]; anticoagulant 0.65 wgt %): 14.1 s
- PTT (4 hrs at RT) ([6]; anticoagulant 0.65 wgt %): 33.8 s
- PT (4 hrs at RT) ([6]; anticoagulant 0.75 wgt %): 16.6 s
- PTT (4 hrs at RT) ([6]; anticoagulant 0.75 wgt %): 33.2 s
- PT (4 hrs at RT) ([6]; anticoagulant 0.90 wgt %): 36.5 s
- PTT (4 hrs at RT) ([6]; anticoagulant 0.90 wgt %): 44.4 s

Structure (SMILES): O=C([O-])CC(O)(CC(=O)[O-])C(=O)[O-].[Na+].[Na+].[Na+] [Na Citrate, sodium citrate, reference compound]
- RBC Day 1 ([1]; anticoagulant 0.65 wgt %): 5.43 10^6/μl
- MCV Day 20 ([1]; anticoagulant 0.65 wgt %): 97.1
- MCV Day 33 ([1]; anticoagulant 0.65 wgt %): 94.3
- RBC Day 1 ([1]; anticoagulant 0.75 wgt %): 5.86 10^6/μl
- MCV Day 20 ([1]; anticoagulant 0.75 wgt %): 98.7
- MCV Day 33 ([1]; anticoagulant 0.75 wgt %): 103.2
- RBC Day 1 ([1]; anticoagulant 0.90 wgt %): 6.07 10^6/μl
- MCV Day 20 ([1]; anticoagulant 0.90 wgt %): 97.8
- MCV Day 33 ([1]; anticoagulant 0.90 wgt %): 103.3
- Alk. Phos [2, 7]: 16 IU/.L
- LDH [2, 7]: 24 IU/L
- SGOT [2, 7]: 1 IU/L
- SGPT [2, 7]: 1 IU/L
- fIX [2, 7]: 14%
- fV [2, 7]: 15%
- fVIII [2, 7]: 29%
- fibrinogen [2, 7]: 88 mg/dL
- Alk. Phos ([2]; Pre glass beads): 27 IU/.L
- LDH ([2]; Pre glass beads): 100 IU/L
- SGOT ([2]; Pre glass beads): 15 IU/L
- SGPT ([2]; Pre glass beads): 29 IU/L
- fIX ([2]; Pre glass beads): 103%
- fV ([2]; Pre glass beads): 98%
- fVIII ([2]; Pre glass beads): 102%
- fibrinogen ([2]; Pre glass beads): 258 mg/dL
- Alk. Phos [4, 13]: 23 IU/.L
- LDH [4, 13]: 84 IU/L
- SGOT [4, 13]: 15 IU/L
- SGPT [4, 13]: 21 IU/L
- fIX [4, 13]: 67%
- fV [4, 13]: 45%
- fVIII [4, 13]: 56%
- fibrinogen [4, 13]: 15 mg/dL
- Alk. Phos ([4]; before heating, fresh plasma): 30 IU/.L
- LDH ([4]; before heating, fresh plasma): 110 IU/L
- SGOT ([4]; before heating, fresh plasma): 18 IU/L
- SGPT ([4]; before heating, fresh plasma): 32 IU/L
- fIX ([4]; before heating, fresh plasma): 104%
- fV ([4]; before heating, fresh plasma): 98%
- fVIII ([4]; before heating, fresh plasma): 109%
- fibrinogen ([4]; before heating, fresh plasma): 206 mg/dL
- PT (4 hrs at RT) ([6]; anticoagulant 0.65 wgt %): 13.1 s
- PTT (4 hrs at RT) ([6]; anticoagulant 0.65 wgt %): 28.7 s
- PT (4 hrs at RT) ([6]; anticoagulant 0.75 wgt %): 14.1 s
- PTT (4 hrs at RT) ([6]; anticoagulant 0.75 wgt %): 31.5 s
- PT (4 hrs at RT) ([6]; anticoagulant 0.90 wgt %): 21.2 s
- PTT (4 hrs at RT) ([6]; anticoagulant 0.90 wgt %): 35.0 s
